Read-outs that look alike come from different tables or passages of the source.
Columns and labels:
[1] = target: GSPT1 (Homo sapiens, UniProt P15170+Q96SW2); assay: HiBiT degradation assay, 293T.114 cells, GSPT1; format: cell-based
Description: GSPT1 degradation was determined based on quantification of luminescent signal using Nano-Glo® HiBiT Lytic Assay kit. Test compounds were added to the 384-well plate from a top concentration of 10 μM with 5 points, 3-fold titration in quadruplicates. 293T.114 cells were added into 384-well plates at a cell density of 6000 cells per well. […] The cells treated in the absence of the test compound were the negative control and the cells without Nano-Glo® HiBiT Lytic reagent were the positive control. […] Luminescence was acquired on EnVision™ Multilabel Reader (PerkinElmer, Santa Clara, CA, USA).

[2] = target: SALL4 (Homo sapiens, UniProt Q96SW2+Q9UJQ4); assay: HiBiT degradation assay, KELLY.2 (SALL4-HiBiT) cells; format: cell-based; conditions: for DC50: KELLY.2 cells, 6 hours; for Emax: read-out: HiBiT-Degradation KELLY.2 SALL4 6 hours Emax, KELLY.2 cells
Sequence of SALL4 (Q9UJQ4 whole entry): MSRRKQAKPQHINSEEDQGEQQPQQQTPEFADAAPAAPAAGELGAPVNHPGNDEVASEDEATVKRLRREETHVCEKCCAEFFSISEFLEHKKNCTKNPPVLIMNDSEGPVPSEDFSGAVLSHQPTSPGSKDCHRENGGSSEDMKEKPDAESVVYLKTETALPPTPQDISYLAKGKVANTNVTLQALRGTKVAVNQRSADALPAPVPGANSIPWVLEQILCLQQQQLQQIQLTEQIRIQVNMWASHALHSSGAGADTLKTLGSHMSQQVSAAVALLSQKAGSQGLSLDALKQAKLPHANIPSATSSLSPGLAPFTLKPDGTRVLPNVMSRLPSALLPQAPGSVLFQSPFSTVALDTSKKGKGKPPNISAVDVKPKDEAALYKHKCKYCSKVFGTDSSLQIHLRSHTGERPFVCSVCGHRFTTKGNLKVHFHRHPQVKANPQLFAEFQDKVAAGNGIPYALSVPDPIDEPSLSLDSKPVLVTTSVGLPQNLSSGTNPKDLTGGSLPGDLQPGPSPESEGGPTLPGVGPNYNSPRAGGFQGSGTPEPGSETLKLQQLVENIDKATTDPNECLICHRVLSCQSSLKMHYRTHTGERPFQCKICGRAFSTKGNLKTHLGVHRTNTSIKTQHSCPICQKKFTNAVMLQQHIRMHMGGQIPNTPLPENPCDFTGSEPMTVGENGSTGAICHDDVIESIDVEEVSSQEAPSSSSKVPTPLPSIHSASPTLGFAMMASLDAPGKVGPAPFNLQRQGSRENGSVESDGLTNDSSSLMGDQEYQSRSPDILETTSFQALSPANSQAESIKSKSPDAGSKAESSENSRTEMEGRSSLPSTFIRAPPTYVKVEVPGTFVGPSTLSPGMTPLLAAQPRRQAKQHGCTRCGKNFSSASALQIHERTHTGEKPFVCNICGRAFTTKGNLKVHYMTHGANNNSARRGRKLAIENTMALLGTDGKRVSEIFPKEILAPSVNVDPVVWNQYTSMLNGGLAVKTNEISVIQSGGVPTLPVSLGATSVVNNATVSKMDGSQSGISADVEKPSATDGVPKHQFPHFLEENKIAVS
Sequence of SALL4 (Q96SW2 whole entry): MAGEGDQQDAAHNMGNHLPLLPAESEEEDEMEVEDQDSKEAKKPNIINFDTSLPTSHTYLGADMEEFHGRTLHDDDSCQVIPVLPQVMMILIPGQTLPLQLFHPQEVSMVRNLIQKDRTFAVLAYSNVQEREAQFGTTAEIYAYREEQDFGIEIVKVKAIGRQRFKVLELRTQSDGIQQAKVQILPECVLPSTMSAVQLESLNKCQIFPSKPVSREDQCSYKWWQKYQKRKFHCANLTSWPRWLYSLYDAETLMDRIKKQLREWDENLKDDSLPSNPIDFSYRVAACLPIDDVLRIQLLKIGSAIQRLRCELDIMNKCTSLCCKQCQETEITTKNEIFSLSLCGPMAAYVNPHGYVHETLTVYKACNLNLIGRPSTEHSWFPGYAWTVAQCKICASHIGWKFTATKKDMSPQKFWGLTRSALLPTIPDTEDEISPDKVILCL
Sequence of SALL4 (Q16531 2-1140 partner limits assumed): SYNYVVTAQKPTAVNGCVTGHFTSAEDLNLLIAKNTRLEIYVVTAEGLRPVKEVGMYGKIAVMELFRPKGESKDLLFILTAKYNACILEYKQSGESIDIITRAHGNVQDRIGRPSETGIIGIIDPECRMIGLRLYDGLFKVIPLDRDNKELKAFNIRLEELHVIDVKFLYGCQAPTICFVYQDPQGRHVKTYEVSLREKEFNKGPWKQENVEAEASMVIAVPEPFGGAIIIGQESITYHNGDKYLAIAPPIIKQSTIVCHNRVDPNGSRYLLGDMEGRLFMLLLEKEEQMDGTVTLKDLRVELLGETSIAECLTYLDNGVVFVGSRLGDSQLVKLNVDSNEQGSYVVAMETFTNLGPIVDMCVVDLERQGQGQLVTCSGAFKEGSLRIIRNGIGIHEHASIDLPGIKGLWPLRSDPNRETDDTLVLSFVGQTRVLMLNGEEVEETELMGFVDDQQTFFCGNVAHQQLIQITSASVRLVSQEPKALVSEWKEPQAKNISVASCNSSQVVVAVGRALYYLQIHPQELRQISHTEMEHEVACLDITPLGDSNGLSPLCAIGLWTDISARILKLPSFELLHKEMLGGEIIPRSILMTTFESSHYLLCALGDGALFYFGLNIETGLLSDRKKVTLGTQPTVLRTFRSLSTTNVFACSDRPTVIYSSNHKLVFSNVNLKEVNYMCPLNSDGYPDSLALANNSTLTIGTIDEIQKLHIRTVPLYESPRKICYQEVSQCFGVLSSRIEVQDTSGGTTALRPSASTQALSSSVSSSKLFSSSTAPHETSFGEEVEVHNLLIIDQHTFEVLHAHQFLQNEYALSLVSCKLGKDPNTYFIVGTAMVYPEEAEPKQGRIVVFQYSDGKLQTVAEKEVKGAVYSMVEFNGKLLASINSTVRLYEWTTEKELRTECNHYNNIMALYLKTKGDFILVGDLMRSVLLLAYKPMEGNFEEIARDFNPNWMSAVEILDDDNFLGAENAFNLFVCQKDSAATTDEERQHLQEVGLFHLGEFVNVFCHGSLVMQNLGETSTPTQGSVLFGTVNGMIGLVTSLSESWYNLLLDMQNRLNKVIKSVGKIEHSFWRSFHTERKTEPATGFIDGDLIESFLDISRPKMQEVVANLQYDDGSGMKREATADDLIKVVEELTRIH
Description: RPMI 1640 Medium without phenol red, fetal bovine serum (FBS), and Sodium Pyruvate (100 mM) were purchased from Gibco (Grand Island, NY, USA). Nano-Glo® HiBiT Lytic Assay System was purchased from Promega (Madison, WI, USA). […] Cell culture flasks and 384-well microplates were acquired from VWR (Radnor, PA, USA).
SALL4 degradation was determined based on quantification of luminescent signal using Nano-Glo® HiBiT Lytic Assay kit. Test compounds were added to the 384-well plate from a top concentration of 10 μM with 11 points, half log titration in duplicates. KELLY.2 cells were added into 384-well plates at a cell density of 6000 cells per well. The plates were kept at 37° C. with 5% CO2 for 6 hours. The cells treated in the absence of the test compound were the negative control and the cells without Nano-Glo® HiBiT Lytic reagent were the positive control. After 6-hour incubation, Nano-Glo® HiBiT Lytic Assay reagents were added to the cells. Luminescence was acquired on EnVision™ Multilabel Reader (PerkinElmer, Santa Clara, CA, USA).

[3] = target: T1, IKZF1 (Homo sapiens, UniProt Q13422+Q96SW2); assay: HiBiT degradation assay, NCIH929.11 (HiBiT-IKZF1) cells; format: cell-based; conditions: for DC50: NCHI929.11 cells, 6 hours; for Emax: read-out: HiBiT-Degradation NCHI929.11 IKZF1 6 hours Emax, NCHI929.11 cells
T1 construct: endogenously expressing IKZF1 with HiBiT fusion tag via CRISPR; endogenous in cells; host or cells: NCIH929.11 (CRISPR knock-in)
T1 sequence (Q13422 whole entry, the tested form may be a part): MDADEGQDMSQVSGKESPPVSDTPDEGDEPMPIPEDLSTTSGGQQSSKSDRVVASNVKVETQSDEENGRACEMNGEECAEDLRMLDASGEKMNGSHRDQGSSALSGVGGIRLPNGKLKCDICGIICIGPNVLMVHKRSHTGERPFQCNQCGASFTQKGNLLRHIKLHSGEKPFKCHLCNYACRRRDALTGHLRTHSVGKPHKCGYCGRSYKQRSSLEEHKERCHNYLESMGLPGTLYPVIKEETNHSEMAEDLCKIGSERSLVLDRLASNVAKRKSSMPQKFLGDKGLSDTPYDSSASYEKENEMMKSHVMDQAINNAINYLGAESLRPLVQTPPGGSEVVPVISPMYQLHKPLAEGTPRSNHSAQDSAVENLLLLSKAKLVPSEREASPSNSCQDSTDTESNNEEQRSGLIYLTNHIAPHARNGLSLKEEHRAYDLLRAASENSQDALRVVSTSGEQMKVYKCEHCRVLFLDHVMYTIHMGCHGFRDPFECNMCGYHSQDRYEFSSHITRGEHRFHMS
T1 sequence (Q96SW2 whole entry, the tested form may be a part): as the sequence (Q96SW2 whole entry) above
T1 sequence (Q16531 2-1140 partner limits assumed): as the sequence (Q16531 2-1140 partner limits assumed) above
Description: RPMI no-phenol red medium and fetal bovine serum (FBS) were purchased from Gibco (Grand Island, NY, USA). Nano-Glo® HiBiT Lytic Assay System was purchased from Promega (Madison, WI, USA). NCIH929.11 (HiBiT-IKZF1) cell line was generated in house, endogenously expressing IKZF1 with HiBiT fusion tag via CRISPR. Cell culture flasks and 384-well microplates were acquired from VWR (Radnor, PA, USA).
IKZF 1 degradation was determined based on quantification of luminescent signal using Nano-Glo® HiBiT Lytic Assay kit. Test compounds were added to the 384-well plate from a top concentration of 10 μM with 11 points, half-log titration in duplicates. NCIH929.11 cells expressing HiBiT-tagged TKZF1 were added into 384-well plates in RPMI medium containing 10% FBS and 0.05 mM 2-mercaptoethanol at a cell density of 15000 cells per well. The plates were kept at 37° C. with […] for 6 hours. Cells treated in the absence of the test compound were the negative control and wells containing media only were the positive control. After 6-hour incubation, Nano-Glo® HiBiT Lytic Assay reagents were added to the designated wells. Luminescence was acquired on EnVision™ Multilabel Reader (PerkinElmer, Santa Clara, CA, USA).

[4] = target: T2, CRBN (Homo sapiens, UniProt Q96SW2); assay: NanoBRET CRBN binding, 293T.116 cells; conditions: 2 hours
T2 construct: expressed in transfected cells; host or cells: 293T (line named 293T.116)
T2 sequence (Q96SW2 whole entry): as the sequence (Q96SW2 whole entry) above
T2 sequence (Q16531 2-1140 partner limits assumed): as the sequence (Q16531 2-1140 partner limits assumed) above

[5] = 293T.114 cells, 6 hours, read-out: HiBiT-Degradation 293T.114 GSPT1 6 hours DC50
[6] = read-out: HiBiT-Degradation 293T.114 GSPT1 6 hours Emax, 293T.114 cells, 6 hours

Sequence of GSPT1 (P15170 whole entry): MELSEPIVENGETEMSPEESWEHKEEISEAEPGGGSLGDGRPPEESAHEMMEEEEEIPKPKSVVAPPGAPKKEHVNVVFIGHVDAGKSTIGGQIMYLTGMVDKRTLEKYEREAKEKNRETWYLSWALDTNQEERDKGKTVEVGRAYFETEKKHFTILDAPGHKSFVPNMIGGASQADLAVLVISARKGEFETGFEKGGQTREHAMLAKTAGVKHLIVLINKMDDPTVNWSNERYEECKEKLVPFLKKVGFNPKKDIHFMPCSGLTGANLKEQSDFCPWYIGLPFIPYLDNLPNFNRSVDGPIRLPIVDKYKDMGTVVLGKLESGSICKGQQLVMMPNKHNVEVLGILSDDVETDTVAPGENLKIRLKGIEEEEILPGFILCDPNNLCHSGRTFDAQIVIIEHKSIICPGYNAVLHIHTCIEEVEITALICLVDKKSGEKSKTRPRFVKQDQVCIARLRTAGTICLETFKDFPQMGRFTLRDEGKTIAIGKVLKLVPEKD
Sequence of GSPT1 (Q96SW2 whole entry): as the sequence (Q96SW2 whole entry) above
Sequence of GSPT1 (Q16531 2-1140 partner limits assumed): as the sequence (Q16531 2-1140 partner limits assumed) above

| SMILES | DC50 [1, 5] [nM] | Emax [1, 6] [%] | DC50 [2] [nM] | Emax [2] [%] | DC50 [3] [nM] | Emax [3] [%] | DC50 ([1]; 293T.114 cells, 24 hours, read-out: HiBiT-Degradation 293T.114 GSPT1 24 hours DC50) [nM] | Emax ([1]; 293T.114 cells, 24 hours, read-out: HiBiT-Degradation 293T.114 GSPT1 24 hours Emax) [%] | DC50 ([1]; 293T.114 cells, 48 hours, read-out: HiBiT-Degradation 293T.114 GSPT1 48 hours DC50) [nM] | Emax ([1]; 293T.114 cells, 48 hours, read-out: HiBiT-Degradation 293T.114 GSPT1 48 hours Emax) [%] | IC50 [4] [nM] | Emax ([1]; read-out: GSPT1 Emax @ 10 μM 24 Hours, 24 hours) [%] |
| --- | --- | --- | --- | --- | --- | --- | --- | --- | --- | --- | --- | --- |
| CC(C)(C)OC(=O)N1CCC(n2cc(Cc3ccc4c5c(cccc35)C(=O)N4[C@H]3CCC(=O)NC3=O)cn2)CC1 [Compound 197, tert-butyl 4-[4-[[1-[(3S)-2,6-dioxo-3-piperidyl]-2-oxo-benzo[cd]indol-6-yl]methyl]pyrazol-1-yl]piperidine-1-carboxylate] | > 10000 | 60 to 95 | < 100 | < 45 | < 100 | < 45 | – | – | – | – | – | – |
| N#Cc1ccc(Cc2ccc3c4c(cccc24)N(C2CCC(=O)NC2=O)C3=O)cc1 (centres unmarked) [Compound 66, 4-[[1-(2,6-dioxo-3-piperidyl)-2-oxo-benzo[cd]indol-5-yl]methyl]benzonitrile] | – | – | 100 to 1000 | 45 to 60 | > 10000 | 60 to 95 | > 10000 | 60 to 95 | > 10000 | 60 to 95 | < 100 | – |
| Cc1cc(C)nc(-c2ccc3c4c(cccc24)N(C2CCC(=O)NC2=O)C3=O)n1 (centres unmarked) [Compound 87, 3-[5-(4,6-dimethylpyrimidin-2-yl)-2-oxo-benzo[cd]indol-1-yl]piperidine-2,6-dione] | > 100 | 60 to 95 | < 100 | < 45 | – | – | – | – | – | – | – | – |
| O=C1CCC(N2C(=O)c3cc(CNCc4ccco4)cc4cccc2c34)C(=O)N1 (centres unmarked) [Compound 160] | > 10000 | 45 to 60 | – | – | – | – | – | – | – | – | – | – |
| COc1ncc(CN2CCC(c3ccc4c5c(cccc35)N(C3CCC(=O)NC3=O)C4=O)CC2)cn1 (centres unmarked) [Compound 177] | > 10000 | 60 to 95 | > 10000 | 60 to 95 | – | – | – | – | – | – | < 100 | – |
| CC1(n2cc(Cc3ccc4c5c(cccc35)C(=O)N4C3CCC(=O)NC3=O)cn2)CCN(c2ncccc2F)CC1 (centres unmarked) [Compound 208, 3-[6-[[1-[1-(3-fluoro-2-pyridyl)-4-methyl-4-piperidyl]pyrazol-4-yl]methyl]-2-oxo-benzo[cd]indol-1-yl]piperidine-2,6-dione] | > 10000 | 60 to 95 | < 100 | < 45 | – | – | – | – | – | – | – | – |
| N#CC1(C(=O)N2CCC(n3cc(Cc4ccc5c6c(cccc46)C(=O)N5C4CCC(=O)NC4=O)cn3)CC2)CCC1 (centres unmarked) [Compound 200, 1-[4-[4-[[1-(2,6-dioxo-3-piperidyl)-2-oxo-benzo[cd]indol-6-yl]methyl]pyrazol-1-yl]piperidine-1-carbonyl]cyclobutanecarbonitrile] | > 10000 | > 95 | < 100 | < 45 | – | – | – | – | – | – | – | – |
| O=C1CCC(N2C(=O)c3cccc4c(Cc5cnn(C6CCN(C(=O)C7(C(F)(F)F)CCC7)CC6)c5)ccc2c34)C(=O)N1 (centres unmarked) [Compound 201] | > 10000 | > 95 | < 100 | < 45 | – | – | – | – | – | – | < 100 | – |
| CN1CC(c2ccc3c4c(cccc24)N(C2CCC(=O)NC2=O)C3=O)C1 (centres unmarked) [Compound 90, 3-[5-(1-methylazetidin-3-yl)-2-oxo-benzo[cd]indol-1-yl]piperidine-2,6-dione] | > 100 | 60 to 95 | < 100 | < 45 | – | – | – | – | – | – | – | – |
| Cc1ccc(CN2CCC(c3ccc4c5c(cccc35)N(C3CCC(=O)NC3=O)C4=O)CC2)cc1F (centres unmarked) [Compound 176] | > 10000 | 60 to 95 | > 10000 | 60 to 95 | – | – | – | – | – | – | < 100 | – |
| CC1(n2cc(Cc3ccc4c5c(cccc35)C(=O)N4C3CCC(=O)NC3=O)cn2)CCN(C(=O)C2(C(F)(F)F)CC2)CC1 (centres unmarked) [Compound 203] | > 10000 | 60 to 95 | < 100 | < 45 | – | – | – | – | – | – | < 100 | – |
| O=C1CCC(N2C(=O)c3ccc(N4CCc5ccccc54)c4cccc2c34)C(=O)N1 (centres unmarked) [Compound 209, 3-(5-indolin-1-yl-2-oxo-benzo[cd]indol-1-yl)piperidine-2,6-dione] | > 10000 | 60 to 95 | < 100 | < 45 | > 10000 | 60 to 95 | – | – | – | – | – | – |
| CC1(n2cc(Cc3ccc4c5c(cccc35)C(=O)N4C3CCC(=O)NC3=O)cn2)CCN(C(=O)C2(C#N)CCCCC2)CC1 (centres unmarked) [Compound 204] | > 10000 | 60 to 95 | < 100 | < 45 | – | – | – | – | – | – | < 100 | – |
| O=C1CCC(N2C(=O)c3ccc(CN4CC(Oc5ccccc5)C4)c4cccc2c34)C(=O)N1 (centres unmarked) [Compound 63, 3-(2-oxo-5-((3-phenoxyazetidin-1-yl)methyl)benzo[cd]indol-1(2H)-yl)piperidine-2,6-dione] | – | – | – | – | – | – | – | – | – | – | – | < 45 |
| O=C1CCC(N2C(=O)c3ccc(C4(F)CCN(Cc5ccccc5)CC4)c4nccc2c34)C(=O)N1 (centres unmarked) [Compound 81, 3-[18-(1-benzyl-4-fluoro-4-piperidyl)-24-oxo-27,30-diazatricyclododeca-5(17),6(18),7(19),8(27),20-pentaen-30-yl]piperidine-2,6-dione] | > 100 | 60 to 95 | < 100 | < 45 | – | – | – | – | – | – | – | – |
| COC(=O)c1ccc(Nc2ccc3cccc4c3c2C(=O)N4C2CCC(=O)NC2=O)cc1 (centres unmarked) [Compound 186, Methyl 4-[[1-(2,6-dioxo-3-piperidyl)-2-oxo-benzo[cd]indol-3-yl]amino]benzoate] | > 10000 | 60 to 95 | > 10000 | 60 to 95 | > 10000 | 60 to 95 | – | – | – | – | – | – |
| CC(NC(=O)c1ccc2c3c(ccnc13)N(C1CCC(=O)NC1=O)C2=O)c1ccccc1 (centres unmarked) [Compound 185, 27-(2,6-dioxo-3-piperidyl)-20-oxo-N-(1-phenylethyl)-24,27-diazatricyclododeca-6,8(15),9(24),13(16),14(17)-pentaene-14-carboxamide] | > 100 | 60 to 95 | < 100 | < 45 | – | – | – | – | – | – | – | – |
| CN(c1ccc2c3c(cccc13)N(C1CCC(=O)NC1=O)C2=O)C1CCN(Cc2ccccc2)C1 (centres unmarked) [Compound 220] | > 100 | 60 to 95 | – | – | – | – | – | – | – | – | – | – |
| CC1(n2cc(Cc3ccc4c5c(cccc35)C(=O)N4C3CCC(=O)NC3=O)cn2)CCN(C(=O)C2CC2)CC1 (centres unmarked) [Compound 205] | > 10000 | 60 to 95 | < 100 | < 45 | – | – | – | – | – | – | < 100 | – |

Source: patent US20240018118A1, “TRICYCLIC COMPOUNDS TO DEGRADE NEOSUBSTRATES FOR MEDICAL THERAPY” (C 4 Therapeutics, Inc., priority 2020, published 2024)
